# According to PMC7673371, “Real-Time Parallel Artificial Membrane Permeability Assay Based on Supramolecular Fluorescent Artificial Receptors” (Frontiers in Chemistry, 2020):
# Entries after “also recorded” stand apart in the source; their conditions may differ.
# Tests used:
# [1] = RT-PAMPA with MDAP∙CB8 fluorescent receptor and 2% DOPC lipid; type: in vitro ADME; conditions: RT-PAMPA conditions, 2% DOPC in dodecane
# Description: with an attached microplate reader.
# Subsequently, 100 μl of the
# Fluorescence intensity was recorded at 449 nm
# For the titration experiments,
# gradual addition of the indole solution.
# were recorded upon each addition of the indole solution. The fluoresc ence decrease at 449 nm was
# 2 Blank control experiments
# [2] = RT-PAMPA with MDAP∙CB8 fluorescent receptor and Avanti lipid
# Description: Analyte solutions were prepared at 1 mmol/L in Millipore water or cosolvents as indicated. The MDAP∙CB8 reporter pair solution contained 5 μmol/L of MDAP and 6 μmol/L of CB8 that were dissolved in Millipore water. Two lipid solutions were used, including the commercial Avanti PAMPA lipid blend I and the self-prepared 2% DOPC in dodecane. To proceed with the assay, 5 μL of the lipid solution was pipetted to the microporous filter and allowed to impregnate evenly; 300 μL of the analyte solution was transferred to the lower donor well, and 100 μL of the reporter pair solution was transferred to the upper acceptor well. The acceptor plate was combined with the donor plate after the solutions had been loaded to define the start point of the assay. Fluorescence readings were taken on a Jasco FP-8500 fluorimeter equipped with a microplate reader with an excitation wavelength at 418 nm and monitored at an emission wavelength of 449 nm.
# RT-PAMPA and fluorescence titration experiments were conducted on a Jasco FP-8500 fluorimeter with an attached microplate reader. For RT-PAMPA, the analytes were prepared at 1 mmol/l, while the FARs, including MDAP•CB8 and berberine•cucurbit[7]uril (BE•CB7), were prepared at 5 μmol/l.
# In the first step, 5 μl of the lipid solution (Avanti PAMPA Blend I or 2% DOPC) was loaded on the microporous bottom of the acceptor well and allowed to disperse evenly. Subsequently, 100 μl of the FAR solution was loaded in the acceptor well, and 300 μl of the analyte solution was loaded into the donor well. Immediately after the solutions were loaded, the two plates were combined with the acceptor plate on top and the donor plate at the bottom. Fluorescence intensity was recorded at 449 nm with an excitation wavelength of 418 nm for the MDAP•CB8 experiments and recorded at 500 nm with an excitation wavelength of 342 nm for the BE•CB7 experiments. For the titration experiments, 2.5 ml of the 1 μmol/l MDAP•CB8 solution was placed into a 1-cm length quartz cuvette, followed by gradual addition of the indole solution. The solution was excited at 418 nm and the fluorescence spectra were recorded upon each addition of the indole solution. The fluoresc ence decrease at 449 nm was fitted with a 1:l binding model in order to obtain the binding constants of the MDAP•CB8•indole […]
# 2 Blank control experiments […]
# 5 Calculation of permeability
# The effective permeability (Pe) of an analyte was calculated with the below equation (Wohnsland and […]
# logP = log {−C × ln (1 − [analyte]acceptor )}
# Based on the principle of the RT-PAMPA, the concentration of analyte in the acceptor well ([analyte]acceptor) and the concentration at equilibrium ([analyte]equilibrium) were obtained with the below equations, with the knowledge of the fluorescence intensity of the acceptor well and the binding constant of the ternary MDAP•CB8•analyte complex. It should be noted that the retention of analyte in the lipid layer was not taken into account.
# [analyte]acceptor = [analyte]complex + [analyte]free
# = IA − IG × [G ] + IA − IG […]
# [analyte] = A G × [G ] + IGA − IG […]
# IA: fluorescence intensity of the acceptor well at the chosen time point; IG: initial fluorescence intensity of the acceptor well;
# IGA: fluorescence intensity of the ternary complex;
# [G0]: initial concentration of FAR in the acceptor well;
# [A0]: initial concentration of analyte in the donor well;
# VA: volume of the solution in the acceptor well;
# VD: volume of the solution in the donor well;
# Ka: binding constant of the ternary MDAP•CB8•analyte complex.
# [3] = RT-PAMPA with BE•CB7 as FAR, Avanti PAMPA lipid layer; type: in vitro ADME; conditions: berberine∙cucurbit[7]uril reporter pair, analyte in water
# [4] = not told; cited from earlier work
# [5] = 1 mmol/L analyte in donor well, MDAP∙CB8 in acceptor well, Avanti lipid, compared with absence of analyte
# [6] = RT-PAMPA, fast = sharp fluorescence drop in initial several minutes, slow = response on time scale of several hours
smiles,measurement,setting,value
O=c1ccc2ccc(O)cc2o1 [umbelliferone],permeation through the 2% DOPC lipid,[1],did not permeate to a significant extent
same,fluorescence response indicative of analyte permeation through the lipid layer,[2]; [5],significant fluorescence responses; also recorded: appreciable permeability
same,permeation characteristics (fast or slow) from the permeation curves,[2]; [6],slowly permeating
NCCc1c[nH]c2ccc(O)cc12 [serotonin],fluorescence response indicative of analyte permeation through the lipid layer,[2]; [5],no significant fluorescence response
CN(C)CCc1c[nH]c2ccc(C[C@H]3COC(=O)N3)cc12 [zolmitriptan],fluorescence response indicative of analyte permeation through the lipid layer,[2]; [5],no significant fluorescence response
O=c1ccc2ccccc2o1 [coumarin],fluorescence response indicative of analyte permeation through the lipid layer,[2]; [5],significant fluorescence responses
same,permeation characteristics (fast or slow) from the permeation curves,[2]; [6],Fast permeation
N[C@@H](Cc1ccccc1)C(=O)O [L-Phenylalanine],fluorescence response indicative of analyte permeation through the lipid layer,[2]; [5],no significant fluorescence response
c1ccc2[nH]ccc2c1 [indole],fluorescence response indicative of analyte permeation through the lipid layer,[2]; [5],significant fluorescence responses
same,permeation characteristics (fast or slow) from the permeation curves,[2]; [6],Fast permeation
same,log Pe,"[2]; indole 0.010 mmol/l, time 0.15 h",–4.55
same,log Pe,"[2]; indole 0.010 mmol/l, time 0.30 h",–4.67
same,log Pe,"[2]; indole 0.010 mmol/l, time 0.45 h",–4.59
same,log Pe,"[2]; indole 0.010 mmol/l, time 0.58 h",–4.52
same,log Pe,"[2]; indole 0.010 mmol/l, time 0.73 h",–4.53
same,log Pe,"[2]; indole 0.010 mmol/l, time 0.87 h",–4.52
same,log Pe,"[2]; indole 0.010 mmol/l, time 1.43 h",–4.55
same,log Pe,"[2]; indole 0.010 mmol/l, time 1.85 h",–4.59
same,log Pe,"[2]; indole 0.1 mmol/l, time 0.15 h",–4.70
same,log Pe,"[2]; indole 0.1 mmol/l, time 0.30 h",–4.72
same,log Pe,"[2]; indole 0.1 mmol/l, time 0.45 h",–4.74
same,log Pe,"[2]; indole 0.1 mmol/l, time 0.58 h",–4.73
same,log Pe,"[2]; indole 0.1 mmol/l, time 0.73 h",–4.74
same,log Pe,"[2]; indole 0.1 mmol/l, time 0.87 h",–4.72
same,log Pe,"[2]; indole 0.1 mmol/l, time 1.43 h",–4.81
same,log Pe,"[2]; indole 0.1 mmol/l, time 1.85 h",–4.87
same,log Pe,"[2]; indole 1.0 mmol/l, time 0.15 h",–5.15
same,log Pe,"[2]; indole 1.0 mmol/l, time 0.30 h",–5.09
same,log Pe,"[2]; indole 1.0 mmol/l, time 0.45 h",–5.17
same,log Pe,"[2]; indole 1.0 mmol/l, time 0.58 h",–5.21
same,log Pe,"[2]; indole 1.0 mmol/l, time 0.73 h",–5.28
same,log Pe,"[2]; indole 1.0 mmol/l, time 0.87 h",–5.32
same,log Pe,"[2]; indole 1.0 mmol/l, time 1.43 h",–5.49
same,log Pe,"[2]; indole 1.0 mmol/l, time 1.85 h",–5.59
Cc1c(OCC(F)(F)F)ccnc1C[S+]([O-])c1nc2ccccc2[nH]1 (stereo not shown) [lansoprazole],fluorescence response indicative of analyte permeation through the lipid layer,[2]; [5],significant fluorescence responses
same,permeation characteristics (fast or slow) from the permeation curves,[2]; [6],slowly permeating
CCC(=O)Nc1ccc(Cl)c(Cl)c1 [propanil],fluorescence response indicative of analyte permeation through the lipid layer,[2]; [5],significant fluorescence responses
same,permeation characteristics (fast or slow) from the permeation curves,[2]; [6],Fast permeation
CN(C)CCC=C1c2ccccc2COc2ccccc21 [doxepin],fluorescence response indicative of analyte permeation through the lipid layer,[2]; [5],no significant fluorescence response
OC12CC3CC(CC(C3)C1)C2 [1-adamantanol],fluorescence response indicative of effective permeation,[3],strong fluorescence response
c1ccc2[nH]c(-c3cscn3)nc2c1 [thiabendazole],influence of organic cosolvent in donor well on permeation curves,"[2]; 0.1 mmol/L in 2 and 20% ethanol, initial hour",overlapped
same,fluorescence response indicative of analyte permeation through the lipid layer,[2]; [5],significant fluorescence responses
same,permeation characteristics (fast or slow) from the permeation curves,[2]; [6],Fast permeation
NC(=O)[C@@H](N)Cc1c[nH]c2ccccc12 [L-tryptophanamide],fluorescence response indicative of analyte permeation through the lipid layer,[2]; PAMPA,significant fluorescence responses
same,permeation characteristics (fast or slow) from the permeation curves,[2]; PAMPA,slowly permeating
same,permeability coefficient (logPe),[4],−5.56
